Reference: patent US6451736B1, “Substituted aromatic thiocarboxylic acid amides and their use as herbicides” (Bayer Aktiengesellschaft, priority 1994, dated 2002)

Experiments:
Format in all cases: in vivo
Chenopodium [1] = test: Post-emergence test/greenhouse; settings: Table C, after three weeks
Experimental: (§1) To produce a suitable preparation of active compound, 1 part by weight of active compound is mixed with the stated amount of solvent, the stated amount of emulsifier is added and the concentrate is diluted with water to the desired concentration.
(§2) Test plants which have a height of 5-15 cm are sprayed with the preparation of active compound in such a way as to apply the particular amounts of active compound desired per unit area. After three weeks, the degree of damage to the plants is rated in % damage in comparison to the development of the untreated control.
(§3) 0%=no action (like intreated control)

Solanum [2] = test: Post-emergence test/greenhouse; settings: Table C, after three weeks
Experimental: as §1, §2, §3

Maize [3] = test: Post-emergence test/greenhouse; settings: Table C, after three weeks
Experimental: as §1, §2, §3

Abuthilon [4] = test: Post-emergence test/greenhouse; settings: Table C, after three weeks
Experimental: as §1, §2, §3

Veronica = test: Post-emergence test/greenhouse; settings: Table C, after three weeks
Experimental: as §1, §2, §3

Amaranthus [5] = test: Post-emergence test/greenhouse; settings: Table C, after three weeks
Experimental: as §1, §2, §3

Wheat [6] = test: Post-emergence test/greenhouse; settings: Table C, after three weeks
Experimental: as §1, §2, §3

Chenopodium [7] = test: Pre-emergence test/greenhouse; settings: Table B, after three weeks
Experimental: as §1
(§4) Seeds of the test plants are sown in normal soil and, after 24 hours, watered with the preparation of active compound. It is expedient to keep constant the amount of water per unit area. The concentration of the active compound in the preparation is of no importance, only the amount of active compound applied per unit area being decisive. After three weeks, the degree of damage to the plants is rated in % damage in comparison to the development of the untreated control. The figures denote:
(§5) 0%=no action (like untreated control)

Solanum [8] = test: Pre-emergence test/greenhouse; settings: Table B, after three weeks
Experimental: as §1, §4, §5

Portulaca = test: Pre-emergence test/greenhouse; settings: Table B, after three weeks
Experimental: as §1, §4, §5

Maize [9] = test: Pre-emergence test/greenhouse; settings: Table B, after three weeks
Experimental: as §1, §4, §5

Abuthilon [10] = test: Pre-emergence test/greenhouse; settings: Table B, after three weeks
Experimental: as §1, §4, §5

Amaranthus [11] = test: Pre-emergence test/greenhouse; settings: Table B, after three weeks
Experimental: as §1, §4, §5

Wheat [12] = test: Pre-emergence test/greenhouse; settings: Table B, after three weeks
Experimental: as §1, §4, §5

Matricaria = test: Pre-emergence test/greenhouse; settings: Table B, after three weeks
Experimental: as §1, §4, §5

| SMILES | degree of damage, Chenopodium (Chenopodium [1]; 8 g/ha) | degree of damage, Solanum (Solanum [2]; 8 g/ha) | degree of damage, Maize (Maize [3]; 8 g/ha) | degree of damage, Abuthilon (Abuthilon [4]; 8 g/ha) | degree of damage, Veronica (Veronica; 8 g/ha) | degree of damage, Amaranthus (Amaranthus [5]; 8 g/ha) | degree of damage, Wheat (Wheat [6]; 8 g/ha) | degree of damage, Chenopodium (Chenopodium [7]; 60 g/ha) | degree of damage, Solanum (Solanum [8]; 60 g/ha) | degree of damage, Portulaca (Portulaca; 60 g/ha) | degree of damage, Maize (Maize [9]; 60 g/ha) | degree of damage, Abuthilon (Abuthilon [10]; 60 g/ha) | degree of damage, Amaranthus (Amaranthus [11]; 60 g/ha) | degree of damage, Wheat (Wheat [12]; 60 g/ha) | degree of damage, Matricaria (Matricaria; 60 g/ha) | also measured |
| --- | --- | --- | --- | --- | --- | --- | --- | --- | --- | --- | --- | --- | --- | --- | --- | --- |
| CCS(=O)(=O)Nc1cc(-n2nc(C(F)(F)F)n(C)c2=S)c(F)cc1C(N)=S [Example 31] | 90% | 100% | 70% | 100% | 100% | 100% | 0% | 100% | 100% | 100% | 0% | 100% | 100% | 0% | 100% | – |
| CCOc1cc(-n2nc3n(c2=O)CCCC3)c(F)cc1C(N)=S [Example 12] | 95% | 100% | 30% | 100% | 100% | 100% | 10% | 100% | 70% | 95% | 0% | 70% | 70% | 20% | 95% | – |
| CCOc1cc(N2C(=O)C3CCCCN3C2=O)c(F)cc1C(N)=S (stereo not drawn) [Example 47] | 95% | 100% | 10% | 100% | 100% | 100% | 10% | – | – | – | – | – | – | – | – | degree of damage, Chenopodium (Chenopodium [7]; 30 g/ha): 100%; degree of damage, Solanum (Solanum [8]; 30 g/ha): 100%; degree of damage, Portulaca (Portulaca; 30 g/ha): 100%; degree of damage, Maize (Maize [9]; 30 g/ha): 0%; degree of damage, Abuthilon (Abuthilon [10]; 30 g/ha): 100%; degree of damage, Amaranthus (Amaranthus [11]; 30 g/ha): 95%; degree of damage, Wheat (Wheat [12]; 30 g/ha): 0%; degree of damage, Matricaria (Matricaria; 30 g/ha): 100% |
| Cn1c(C(F)(F)F)nn(-c2cc(NS(C)(=O)=O)c(C(N)=S)cc2F)c1=S [Example 34] | – | – | – | – | – | – | – | 100% | 100% | 100% | 0% | 100% | 100% | 0% | 100% | degree of damage, Chenopodium (Chenopodium [1]; 15 g/ha): 100%; degree of damage, Solanum (Solanum [2]; 15 g/ha): 100%; degree of damage, Maize (Maize [3]; 15 g/ha): 30%; degree of damage, Abuthilon (Abuthilon [4]; 15 g/ha): 100%; degree of damage, Veronica (Veronica; 15 g/ha): 100%; degree of damage, Amaranthus (Amaranthus [5]; 15 g/ha): 100%; degree of damage, Wheat (Wheat [6]; 15 g/ha): 0% |
| CC(C)Oc1cc(N2C(=O)C3CCCCN3C2=O)c(F)cc1C(N)=S (stereo not drawn) [Example 46] | 95% | 100% | 20% | 100% | 100% | 100% | 15% | 100% | 100% | 100% | 70% | 100% | 100% | 0% | 100% | – |
| Cn1c(C(F)F)nn(-c2cc(F)c(C(N)=S)cc2F)c1=S [Example 8] | – | – | – | – | – | – | – | 100% | 100% | 95% | 0% | 100% | 100% | 40% | 95% | degree of damage, Chenopodium (Chenopodium [1]; 60 g/ha): 100%; degree of damage, Solanum (Solanum [2]; 60 g/ha): 100%; degree of damage, Maize (Maize [3]; 60 g/ha): 30%; degree of damage, Abuthilon (Abuthilon [4]; 60 g/ha): 100%; degree of damage, Veronica (Veronica; 60 g/ha): 100%; degree of damage, Amaranthus (Amaranthus [5]; 60 g/ha): 100%; degree of damage, Wheat (Wheat [6]; 60 g/ha): 10% |
